Data as given in US9695155B2, “Herbicidal substituted pyrimidinyloxy benzene compounds” (E. I. DU PONT DE NEMOURS AND COMPANY, priority 2013, dated 2017).

Columns and labels:
cocklebur = assay: Test E preemergence; type: in vivo, Xanthium strumarium; conditions: for Cocklebur plant response rating: scale 0 to 100 (0 no effect, 100 complete control); for Plant response rating, Cocklebur: scale 0 to 100, 0 no effect, 100 complete control
Text: (§1) Seeds of plant species selected from corn (Zea mays), soybean (Glycine max), velvetleaf (Abutilon theophrasti), lambsquarters (Chenopodium album), wild poinsettia (Euphorbia heterophylla), palmer pigweed (Amaranthus palmeri), waterhemp (common waterhemp, Amaranthus rudis), surinam grass (Brachiaria decumbens), large (Lg) crabgrass (Digitaria sanguinalis), Brazilian crabgrass (Digitaria horizontalis), fall panicum (Panicum dichotomiflorum), giant foxtail (Setaria faberii), green foxtail (Setaria viridis), goosegrass (Eleusine indica), johnsongrass (Sorghum halepense), ragweed (common ragweed, Ambrosia elatior), barnyardgrass (Echinochloa crus-galli), sandbur (southern sandbur, Cenchrus echinatus), arrowleaf sida (Sida rhombifolia), Italian ryegrass (Lolium multiflorum), dayflower (Virginia (VA) dayflower, Commelina virginica), field bindweed (Convolvulus arvensis), morningglory (Ipomoea coccinea), nightshade (eastern black nightshade, Solanum ptycanthum), kochia (Kochia scoparia), yellow nutsedge (Cyperus esculentus), cocklebur (common cocklebur, Xanthium strumarium), smartweed (ladysthumb smartweed, and hairy beggarticks (Bidens pilosa), were planted into a silt loam soil and treated preemergence with test chemicals formulated in a non-phytotoxic solvent mixture which included a surfactant.
(§2) At the same time, plants from these crop and weed species and also horseweed (Canada horseweed, Conyza canadensis), waterhemp_RES1, (ALS & Triazine resistant common waterhemp, Amaranthus rudis), and waterhemp_RES2, (ALS & HPPD resistant common waterhemp, Amaranthus rudis) were planted in pots containing Redi-Earth® planting medium (Scotts Company, 14111 Scottslawn Road, Marysville, Ohio 43041) comprising spaghnum peat moss, vermiculite, wetting agent and starter nutrients were treated with postemergence applications of test chemicals formulated in the same manner. Plants ranged in height from 2 to 18 cm for postemergence treatments (1- to 4-leaf stage). Treated plants and controls were maintained in a greenhouse for 14 to 21 days, after which time all species were compared to controls and visually evaluated. Plant response ratings, summarized in Table E, are based on a scale of 0 to 100 where 0 is no effect and 100 is complete control. A dash (-) response means no test result.

kochia = assay: Test E postemergence; type: in vivo, Kochia scoparia
Text: as §1, §2

guineagrass = assay: Test F preemergence; type: in vivo, Panicum maximum; conditions: 21 days, scale 0 to 100
Text: (§3) Seeds of plant species selected from bermudagrass (Cynodon dactylon), surinam grass (Brachiaria decumbens), large (Lg) crabgrass (Digitaria sanguinalis), crabgrass, naked (naked crabgrass, Digitaria nuda), foxtail, green (green foxtail, Setaria viridis), johnsongrass (Sorghum halepense), kochia (Kochia scoparia), morningglory (pitted morningglory, Ipomoea lacunosa), nutsedge, purple (purple nutsedge, Cyperus rotundus), ragweed (common ragweed, Ambrosia elatior), mustard, black (black mustard, Brassica nigra), guineagrass (Panicum maximum), dallisgrass (Paspalum dilatatum), barnyardgrass (Echinochloa crus-galli), sandbur (southern sandbur, Cenchrus echinatus), sowthistle (common sowthistle, Sonchus oleraceous), Italian ryegrass (Lolium multiflorum), signalgrass (broadleaf signalgrass, Brachiaria platyphylla), dayflower (Virginia (VA) dayflower, Commelina virginica), bluegrass (annual bluegrass, Poa annua), quackgrass (Elytrigia repens), mallow (common mallow, Malva sylvestris), buckwheat, wild (wild buckwheat, Polygonum convolvulus), leafy spurge (Euphorbia esula), chickweed (common chickweed, Stellaria media), wild poinsettia (Euphorbia heterophylla), and pigweed (Amaranthus retroflexus) were planted into a blend of loam soil and sand and treated preemergence with test chemicals formulated in a non-phytotoxic solvent mixture which included a surfactant.
(§4) Treated plants and controls were maintained in a greenhouse for 21 days, after which time all species were compared to controls and visually evaluated. Plant response ratings, summarized in Table F, are based on a scale of 0 to 100 where 0 is no effect and 100 is complete control. A dash (-) response means no test result.

barnyardgrass = assay: Test F preemergence; type: in vivo, Echinochloa crus-galli; conditions: 21 days, scale 0 to 100
Text: as §3, §4

dayflower = assay: Test F preemergence; type: in vivo, Commelina virginica; conditions: 21 days, scale 0 to 100
Text: as §3, §4

quackgrass = assay: Test F preemergence; type: in vivo, Elytrigia repens; conditions: 21 days, scale 0 to 100
Text: as §3, §4

chickweed = assay: Test D postemergence; type: in vivo, Stellaria media; conditions: for pest or weed control at 16 g/ha / pest or weed control at 31 g/ha / pest or weed control at 62 g/ha / pest or weed control at 125 g/ha: Stellaria media, post-emergence; for pest or weed control at 16 g/ha: scale 0-100, read-out: Plant response rating, Chickweed; for pest or weed control at 31 g/ha / pest or weed control at 62 g/ha / pest or weed control at 125 g/ha: read-out: Plant response rating, Chickweed
Text: (§5) Seeds of plant species selected from bluegrass (annual bluegrass, Poa annua), blackgrass (Alopecurus myosuroides), canarygrass (littleseed canarygrass, Phalaris minor), chickweed (common chickweed, Stellaria media), galium (catchweed bedstraw, Galium aparine), bromegrass, downy (downy bromegrass, Bromus tectorum), field poppy (Papaver rhoeas), field violet (Viola arvensis), green foxtail (Setaria viridis), deadnettle (henbit deadnettle, Lamium amplexicaule), Italian ryegrass (Lolium multiflorum), kochia (Kochia scoparia), lambsquarters (Chenopodium album), oilseed rape (Brassica napus), pigweed (Amaranthus retroflexus), chamomile (scentless chamomile, Matricaria inodora), Russian thistle (Salsola kali), speedwell (bird's-eye speedwell, Veronica persica), spring barley (Hordeum vulgare), spring wheat (Triticum aestivum), wild buckwheat (Polygonum convolvulus), wild mustard (Sinapis arvensis), wild oat (Avena fatua), wild radish (Raphanus raphanistrum), windgrass (Apera spica-venti), winter barley (Hordeum vulgare), and winter wheat (Triticum aestivum) were planted into a silt loam soil and treated preemergence with test chemicals formulated in a non-phytotoxic solvent mixture which included a surfactant.
(§6) At the same time, these species were planted in pots containing Redi-Earth® planting medium (Scotts Company, 14111 Scottslawn Road, Marysville, Ohio 43041) comprising spaghnum peat moss, vermiculite, wetting agent and starter nutrients and treated with postemergence applications of the test chemicals formulated in the same manner. Plants ranged in height from 2 to 18 cm (1- to 4-leaf stage). Treated plants and controls were maintained in a controlled growth environment for 7 to 21 days after which time all species were compared to controls and visually evaluated. Plant response ratings, summarized in Table D, are based on a scale of 0 to 100 where 0 is no effect and 100 is complete control. A dash (-) response means no test result.

deadnettle = assay: Test D postemergence; type: in vivo, Lamium amplexicaule; conditions: for pest or weed control at 16 g/ha / pest or weed control at 31 g/ha / pest or weed control at 62 g/ha / pest or weed control at 125 g/ha: Lamium amplexicaule, post-emergence; for pest or weed control at 16 g/ha: scale 0-100, read-out: Plant response rating, Deadnettle; for pest or weed control at 31 g/ha / pest or weed control at 62 g/ha / pest or weed control at 125 g/ha: read-out: Plant response rating, Deadnettle
Text: as §5, §6

[1] = Postemergence, 31 g ai/ha, scale 0 to 100
[2] = Postemergence, 62 g ai/ha, scale 0 to 100
[3] = Postemergence, 125 g ai/ha, scale 0 to 100
[4] = postemergence, 16 g ai/ha, scale 0 to 100, 0 no effect, 100 complete control
[5] = 31 g ai/ha, scale 0 to 100 (0 no effect, 100 complete control)
[6] = 62 g ai/ha, scale 0 to 100 (0 no effect, 100 complete control)
[7] = 125 g ai/ha, scale 0 to 100 (0 no effect, 100 complete control)

Row | Compound | Plant response rating, Guineagrass (guineagrass; 16 g ai/ha) | Plant response rating, Guineagrass (guineagrass; 31 g ai/ha) | Plant response rating, Guineagrass (guineagrass; 62 g ai/ha) | Plant response rating, Guineagrass (guineagrass; 125 g ai/ha) | Plant response rating, Guineagrass (guineagrass; 250 g ai/ha) | Plant response rating, Barnyardgrass (barnyardgrass; 16 g ai/ha) | Plant response rating, Barnyardgrass (barnyardgrass; 31 g ai/ha) | Plant response rating, Barnyardgrass (barnyardgrass; 62 g ai/ha) | Plant response rating, Barnyardgrass (barnyardgrass; 125 g ai/ha) | Plant response rating, Barnyardgrass (barnyardgrass; 250 g ai/ha) | Plant response rating, Dayflower, VA (dayflower; 16 g ai/ha) | Plant response rating, Dayflower, VA (dayflower; 31 g ai/ha) | Plant response rating, Dayflower, VA (dayflower; 62 g ai/ha) | Plant response rating, Dayflower, VA (dayflower; 125 g ai/ha) | Plant response rating, Dayflower, VA (dayflower; 250 g ai/ha) | Plant response rating, Quackgrass (quackgrass; 16 g ai/ha) | Plant response rating, Quackgrass (quackgrass; 31 g ai/ha) | Plant response rating, Quackgrass (quackgrass; 62 g ai/ha) | Plant response rating, Quackgrass (quackgrass; 125 g ai/ha) | Plant response rating, Quackgrass (quackgrass; 250 g ai/ha) | also measured
1 | N#Cc1cccc(Oc2ncc(Cl)cn2)c1-n1cc(Cl)cn1 [Compound 72] | – | – | – | – | – | – | – | – | – | – | – | – | – | – | – | – | – | – | – | – | Cocklebur plant response rating (cocklebur; 16 g ai/ha): 0; Plant response rating, Cocklebur (cocklebur; 125 g ai/ha): 0; Plant response rating, Cocklebur (cocklebur; 250 g ai/ha): 15
2 | N#Cc1cccc(Oc2ncc(F)cn2)c1-n1cc(C(F)(F)F)cn1 [Compound 79, 3-[(5-fluoro-2-pyrimidinyl)oxy]-2-[4-(trifluoromethyl)-1H-pyrazol-1-yl]benzonitrile] | 100 | 100 | 100 | 100 | 100 | 75 | 100 | 100 | 100 | 100 | 95 | 98 | 100 | 100 | 100 | 40 | 70 | 95 | 98 | 100 | Plant response rating, Kochia (kochia; [1]): 70; Plant response rating, Kochia (kochia; [2]): 80; Plant response rating, Kochia (kochia; [3]): 75; Plant response rating, Kochia (kochia; [4]): 50
3 | N#Cc1cccc(Oc2ncc(Cl)cn2)c1-n1cc(OC(F)F)cn1 [Compound 97] | 100 | 100 | 100 | 100 | 100 | 0 | 90 | 95 | 100 | 100 | 35 | 80 | 98 | 98 | 100 | 0 | 35 | 50 | 95 | 100 | –
4 | Fc1cccc(Oc2ncc(Cl)cn2)c1-n1cc(C(F)F)nn1 [Compound 141, 5-chloro-2-[2-[4-(difluoromethyl)-1H-1,2,3-triazol-1-yl]-3-fluorophenoxy]pyrimidine] | – | – | – | – | – | – | – | – | – | – | – | – | – | – | – | – | – | – | – | – | pest or weed control at 16 g/ha (chickweed; 16 g ai/ha): 70%; pest or weed control at 31 g/ha (chickweed; [5]): 90%; pest or weed control at 62 g/ha (chickweed; [6]): 95%; pest or weed control at 125 g/ha (chickweed; [7]): 100%; pest or weed control at 16 g/ha (deadnettle; 16 g ai/ha): 100%; pest or weed control at 31 g/ha (deadnettle; [5]): 100%; pest or weed control at 62 g/ha (deadnettle; [6]): 100%; pest or weed control at 125 g/ha (deadnettle; [7]): 100%
5 | Clc1cnc(Oc2cccc(Cl)c2-n2cc(I)cn2)nc1 [Compound 181] | – | – | – | – | – | – | – | – | – | – | – | – | – | – | – | – | – | – | – | – | Plant response rating, Kochia (kochia; [1]): 60; Plant response rating, Kochia (kochia; [2]): 50; Plant response rating, Kochia (kochia; [3]): 90; Plant response rating, Kochia (kochia; [4]): 35
6 | N#Cc1cnn(-c2c(C#N)cccc2Oc2ncc(Cl)cn2)c1 [Compound 200] | – | – | – | – | – | – | – | – | – | – | – | – | – | – | – | – | – | – | – | – | Cocklebur plant response rating (cocklebur; 16 g ai/ha): 0; Cocklebur plant response rating (cocklebur; 31 g ai/ha): 0; Plant response rating, Cocklebur (cocklebur; 125 g ai/ha): 75; Plant response rating, Cocklebur (cocklebur; 250 g ai/ha): 95
7 | FCc1cccc(Oc2ncc(Cl)cn2)c1-n1cc(I)cn1 [Compound 245] | – | – | – | – | – | – | – | – | – | – | – | – | – | – | – | – | – | – | – | – | Plant response rating, Chickweed (chickweed; 16 g ai/ha, scale 0-100): 45; Plant response rating, Chickweed (chickweed; [5]): 75; Plant response rating, Chickweed (chickweed; [6]): 95; Plant response rating, Chickweed (chickweed; [7]): 98; Plant response rating, Deadnettle (deadnettle; 16 g ai/ha, scale 0-100): 100; Plant response rating, Deadnettle (deadnettle; [5]): 100; Plant response rating, Deadnettle (deadnettle; [6]): 100; Plant response rating, Deadnettle (deadnettle; [7]): 100
8 | N#Cc1cccc(Oc2ncc(Cl)cn2)c1-n1cc(OCC(F)(F)F)cn1 [Compound 274, 3-[(5-chloro-2-pyrimidinyl)oxy]-2-[4-(2,2,2-trifluoroethoxy)-1H-pyrazol-1-yl]benzonitrile] | 100 | 100 | 100 | 100 | 100 | 75 | 100 | 100 | 100 | 100 | 90 | 95 | 98 | 100 | 100 | 40 | 40 | 70 | 85 | 98 | pest or weed control at 16 g/ha (chickweed; 16 g ai/ha): 65%; pest or weed control at 31 g/ha (chickweed; [5]): 65%; pest or weed control at 62 g/ha (chickweed; [6]): 70%; pest or weed control at 125 g/ha (chickweed; [7]): 80%; pest or weed control at 16 g/ha (deadnettle; 16 g ai/ha): 50%; pest or weed control at 31 g/ha (deadnettle; [5]): 45%; pest or weed control at 62 g/ha (deadnettle; [6]): 60%; pest or weed control at 125 g/ha (deadnettle; [7]): 70%
